Results published in patent US11339111B2, “Polyketide compound and derivatives thereof for use in the prevention and treatment of a neurological disorder” (SOCIETE DES PRODUITS NESTLE S.A., priority 2017, dated 2022).
Like-named read-outs stand apart in the source and are kept apart here.

What was measured:
[1] = system: human iPSc derived into cardiomyocyte; assay: Toxicity - ATP content (CellTiter-Glo); format: cell-based; conditions: ATP content after 24 hours
Protocol: iCell Cardiomyocytes were seeded in 384-well plates. Eight days later cells were treated for 24 hours with compounds. Cell viability was determined by the quantification of intracellular ATP after cell lysis. ATP was used as an indicator of metabolically active cells. ATP was measured using a luminescent cell viability assay (CellTiter-Glo®; […]). Luminescence was measured after 20 min in a Bioteck Synergie Neo multimode reader.
Toxicity of the unsaturated polyketide/macrocyclic lactone compounds were evaluated in human IPS cell derived cardiomyocytes by measuring total ATP in cell lysates.
Dose response of compounds on human iPSc derived into cardiomyocyte with evaluation of the ATP level using cell titer glow. Results were normalized between untreated cells (100%) and positive control (0%).
The unsaturated polyketide/macrocyclic lactone compound mentioned throughout the Examples section is proposed to have the structure corresponding to Compound A as described herein. […]
Y-axis: relative fluorescence unit in percentage, X-axis: logarithm concentration of the compound in mg/ml for fraction and molar for pure compound. […]

[2] = system: human iPSc derived into astrocytes; assay: Lactate release dose response in human iPSc derived astrocytes; format: cell-based; conditions: 2 hours treatment
Protocol: Dose response curves were established for compounds identified in the screen to stimulate lactate secretion. The EC50 values for the stimulation of lactate secretion were determined using primary human IPS cell derived astrocytes.
Differentiated human iPSCs (iCell astrocytes, and iCell cardiomyocytes) were obtained from Cellular Dynamics International (CDI, Madison, Wis., USA). iCell astrocytes were cultured in DMEM supplemented with 10% fetal calf serum and N2 complement. iCell cardiomyocytes were maintained in a medium supplied by CDI. Cell cultures were kept in a humidified atmosphere (5% CO2) at 37° C.
Dose response of compounds on lactate release from human iPSc derived into astrocyte fitted with a log (agonist) vs response variable slope to extract efficacy (EC50). Mean±SEM in duplicate.
The unsaturated polyketide/macrocyclic lactone compound mentioned throughout the Examples section is proposed to have the structure corresponding to Compound A as described herein. The toxicity expressed in log IC50 (ATP content after 24 hours compound treatment on human iPSc derived into cardiomyocyte) was compared against the lactate release in log EC50 (lactate secretion after 2 hours compound treatment in human iPSc derived into astrocytes).
Y-axis: relative fluorescence unit, X-axis: logarithm concentration of the compound in mg/ml for fraction and molar for pure compound. […]

## C/C1=C\C(C)C(=O)CC(O)/C(C)=C/C(C)CC(C)CCC(C(C)C(=O)O)OC(=O)C(C)C1 (stereo not shown)
[1]; pure compound (molar), read-out: Cardiomyocytes Toxicity IC50
  IC50: > 100000 nM
[1]; pure compound, log of molar concentration, read-out: Cardiomyocytes Toxicity log IC50 (converted)
  IC50: > 100000 nM
[2]; pure compound (head: mg/ml or M; molar for pure compound), read-out: Astrocytes Lactate release EC50
  EC50: 1600 nM
[2]; pure compound, log of molar concentration, read-out: Astrocytes Lactate release logEC50 (converted)
  EC50: 2000 nM
